Results as given in paper PMC6143478, “Lipophilic activated ester prodrug approach for drug delivery to the intestinal lymphatic system” (Journal of Controlled Release, 2018).

Tested on: human chylomicrons (CM)
Test: Ex vivo association with human plasma-derived chylomicrons
Assay type: in vitro ADME
Conditions: 1.755 μM, 37 °C, 1 h; in words, relative to parent drug
Text: The protocol for preparation of human plasma-derived CM emulsion was approved by the Faculty of Medicine and Health Sciences Research Ethics Committee, Queens Medical Centre, Nottingham University Hospitals (BT12102015 CBS SoP). Healthy male volunteers of 19–40 years old and with body mass index of 18.5–25.0 were enrolled in the study after providing informed consent. The participants were excluded if any medication was used within one week prior to enrolment. On the morning of the study, participants received a high-fat meal (equivalent to a full English breakfast). Between 3 and 4 h following breakfast, 30 mL of blood was collected using heparinised tubes (Vacutainer® Blood Collection Tubes) and centrifuged (800 g, 10 min, 15 °C) to obtain plasma.
CM separation was performed as previously reported with minor modifications. Briefly, KBr (0.57 g) was mixed with 4 mL of plasma to yield density of 1.1 g/mL. PBS with densities of 1.006, 1.019, and 1.063 g/mL were prepared by adding appropriate amounts of KBr. These PBS of different densities were layered on top of the plasma to build density gradient layers in polyallomer ultracentrifuge tubes. The samples were then centrifuged at 268,350 g for 35 min at 15 °C using an ultracentrifuge (SORVALL® TH-641 Rotor, Thermo Fisher Scientific, UK). Following ultracentrifugation, approximately 1 mL of the upper layer containing CM was collected. TG concentration of CM emulsion was assessed using the TG enzymatic kit (Sigma Aldrich, Dorset, UK). TG concentration of the emulsion was adjusted to 100 mg/dL by diluting with PBS of 1.006 g/mL density. The CM emulsion was stored at 4 °C until the association assay (˂24 h).
The association of the compounds with artificial lipid particle emulsion and human CM was assessed using previously reported methodology with minor modifications. Briefly, 1 mL of artificial lipid particle or CM emulsions (TG concentration 100 mg/dL) was used for the association assay. The emulsion was spiked with stock solutions of tested compounds (in acetonitrile) to give a final concentration of 1.755 μM. The reaction mixtures were incubated at 37 °C for 1 h with magnetic stirring at 300 rpm. Following the incubation, density gradient ultracentrifugation was applied as described above to isolate the artificial lipid particles or CM associated with the tested compounds from the rest of the experimental medium. All experiments were conducted in quintuplicates or above.

For C=C(c1ccc(C(=O)OCC)cc1)c1cc2c(cc1C)C(C)(C)CCC2(C)C [prodrug 2], the “association with human chylomicrons (CM)” value was “equally high affinity to CM”.
